Results: US12247063B2, “Cell surface modification by coating with peptide amphiphiles (PAs)” (Northwestern University, priority 2020, dated 2025)
Peptide text beside a SMILES is read from it.

Legend:
[1] = Viability of PA-coated hTreg cells (Calcein AM, flow cytometry); format: cell-based, human; conditions: human, human regulatory T (hTreg) cells
Protocol: (§1) The 15 μL of concentrated cell dispersion in DPBS was mixed with 10 μL of PA solution in 500 μL-tube at RT. Unless otherwise noted, the incubation time for backbone PAs and VCAMb PA is 5 minutes and 1 minute, respectively. After incubation the cell and PA mixture was transferred to a 15 mL-conical tube with 2 mL of DPBS and centrifuged down by 1,000 g for 10 minutes. The supernatant was aspirated leaving 300 μL of buffers with the cell pellet. For backbone PA, the washing step was repeated for 3 times. For further characterizations, the pellets were dissociated in 100 μL DPBS.
(§2) All cells were stained by Calcein AM (Life Technologies) and Hoechst 33342 (Life Technologies) according to manufacturer's instructions for imaging and the flow cytometry analysis. For confocal fluorescence imaging and imaging with z-stacks, Nikon X1 Spinning Disk Confocal microscope in Center for Advanced Microscopy/Nikon Imaging Center (CAM), Northwestern University was utilized. For 3D reconstruction of z-stacks of confocal images, IMARIS software (Oxford Instruments) in the same center was utilized.
(§3) In order to quantify the coating efficiency, mean fluorescence intensity (MFI) and the viability of the cells, LSR Fortessa and Diva software (BD Biosciences) was utilized. The coating efficiency was obtained from calculating the number of TAMRA+ cells divided by the total number of cells (Hoechst+ cells). The MFI value was obtained from living cells. The viability was calculated by dividing the number of Calcein-AM+ (living cells) by the total number of cells.

[2] = target: T1, Recombinant Human VCAM-1/CD106 Fc chimera protein (Homo sapiens, UniProt P19320); test: Biolayer interferometry (BLI) binding to VCAM-1 protein; conditions: all concentrations of PA investigated (0.1 mM-100 nM)
T1 construct: Fc (immunoglobulin Fc fusion partner); His tag (inferred from capture on anti-penta-His sensor); purchased R&D Systems
Protocol: The PA solution of each PA were prepared with the concentration 1 mM after annealing and serial dilutions were made for 100, 10, 1 μM, 100, 10, 1 nM solutions using DPBS. Recombinant Human VCAM-1/CD106 Fc chimera protein (R&D Systems) was purchased and the stock solution of 100 μg/mL was prepared according to the manufacturer's instructions and stored in −80° C. until use. For measurement, the protein solution was diluted to […]. The binding responses were measured and recorded by BLItz Bio-Layer Interferometer in Keck Biophysics Facility, Chicago campus, Northwestern University. The biosensor utilized for this study was Anti-Penta-HIS Biosensors (ForteBio). The measuring protocol is as follows: 30 seconds of initial baseline measurement, 600 seconds of protein (VCAM-1) immobilization, 30 seconds of base line measurement, 300 seconds of association measurement, 300 seconds of dissociation measurement. The dissociation constant was calculated by BLItz Pro Software.

ICAM surface = ICAM surface (Homo sapiens, UniProt P05362); test: Microfluidic flow retention of coated lymphocytes on protein surface; format: cell-based
From the text: (§4) To further investigate the coating efficiency of the targeting PAs, murine primary splenocytes were isolated, coated with TAMRA-labeled ICAM-1 targeting PA, and visualized using confocal microscopy. […] Flow cytometry was subsequently performed to compare coating efficiency of ICAM-1 and VCAM-1 targeting PAs. […] This can be visualized through both light microscopy (top) and processed images highlighting bound cell edges (bottom).

[3] = test system: human regulatory T (hTreg) cells; test: PA nanofiber coating of human regulatory T cells (flow cytometry, confocal); format: cell-based
Protocol: To isolate the Treg cells, the apheresis product collected from peripheral blood was suspended in a de-clumping buffer (Miltenyi PBS/EDTA Buffer, 25% Human Serum Albumin (HSA), MgCl2, and Pulmozyme). Using CliniMACS Plus and GMP grade reagents, the CD8 and CD19 depletion and CD25+ enrichment was carried out (Miltenyi). The isolated Tregs were stimulated/expanded with Exp-Act® beads at a 4:1 (bead:cell) ratio in a TexMACS medium supplemented with 5% heat-inactivated AB serum, 1,000 IU/ml IL-2, 100 ng/ml Sirolimus (SRL: Rapamycin; Sigma Aldrich) and 1 μg/ml TGF-β (Miltenyi Biotec). The cells were then restimulated with Exp-Act® beads, at a ratio of 1:1 beads on Day 7 and 14. Further, the expanded Tregs were harvested on Day 21 and Exp-Act beads were removed on the CliniMACS Plus instrument for the nanofiber coating experiment and evaluation. Peripheral blood samples were obtained under a protocol following written informed consent approved and supervised by a Northwestern University Institutional Review Board.
(§5) The cells for PA nanofiber coating should be prepared as a dispersion in buffer (DPBS; Invitrogen). The adherent cells such as 3T3 and C2C12 cells were dissociated using Trypsin (0.25%, Invitrogen). The cells were centrifuged down and washed using buffers to be prepared in DPBS (5×10^5 cells/15 μL/tube). Non-adherent cells such as CCRF-CEM cells or human regulatory T cells were simply washed by buffers to remove serum or other proteins which potentially interact with the PA molecules to get concentrated cell dispersion.
as §1
as §2, with “For 3D reconstruction of z-stacks of confocal images, IMARIS software (Oxford Instruments) in the same center was utilized.” left out
(§6) In order to quantify the coating efficiency, mean fluorescence intensity (MFI) and the viability of the cells, LSR Fortessa and Diva software (BD Biosciences) was utilized. […] The viability was calculated by dividing the number of Calcein-AM+ (living cells) by the total number of cells.

[4] = test system: primary murine splenocytes; test: Coating of murine primary splenocytes (confocal, flow cytometry); format: cell-based
From the text: as §4

[5] = Zeta potential measurement of PA nanofibers; format: physicochemical; conditions: 0.1 mM PA in DPBS
Protocol: The PA solutions were prepared with the final concentration of 0.1 mM in DPBS. Each solution was transferred to folded capillary zeta cells (Malvern). The zeta potential was measured using zetasizer Nano ZSP (Malvern).

[6] = test system: human regulatory T (hTreg) cells; test: Viability of PA-coated hTreg cells (Calcein AM, flow cytometry); format: cell-based; conditions: 500 μM coating solution
Protocol: as §1, §2, §3

CCRF-CEM cells = test: PA nanofiber coating of CCRF-CEM model cells (confocal microscopy, flow cytometry); format: cell-based; conditions: annealed nanofibers with 1 mol % TAMRA-PA
Protocol: as §5
The 15 μL of concentrated cell dispersion in DPBS was mixed with 10 μL of PA solution in 500 μL-tube at RT. […]
as §2, with “For 3D reconstruction of z-stacks of confocal images, IMARIS software (Oxford Instruments) in the same center was utilized.” left out
as §6

VCAM-1 = target: T2, VCAM-1 (Homo sapiens, UniProt P19320); conditions: free peptide, SPR, measured from another group; cited from earlier work
T2 sequence (P19320 25-739): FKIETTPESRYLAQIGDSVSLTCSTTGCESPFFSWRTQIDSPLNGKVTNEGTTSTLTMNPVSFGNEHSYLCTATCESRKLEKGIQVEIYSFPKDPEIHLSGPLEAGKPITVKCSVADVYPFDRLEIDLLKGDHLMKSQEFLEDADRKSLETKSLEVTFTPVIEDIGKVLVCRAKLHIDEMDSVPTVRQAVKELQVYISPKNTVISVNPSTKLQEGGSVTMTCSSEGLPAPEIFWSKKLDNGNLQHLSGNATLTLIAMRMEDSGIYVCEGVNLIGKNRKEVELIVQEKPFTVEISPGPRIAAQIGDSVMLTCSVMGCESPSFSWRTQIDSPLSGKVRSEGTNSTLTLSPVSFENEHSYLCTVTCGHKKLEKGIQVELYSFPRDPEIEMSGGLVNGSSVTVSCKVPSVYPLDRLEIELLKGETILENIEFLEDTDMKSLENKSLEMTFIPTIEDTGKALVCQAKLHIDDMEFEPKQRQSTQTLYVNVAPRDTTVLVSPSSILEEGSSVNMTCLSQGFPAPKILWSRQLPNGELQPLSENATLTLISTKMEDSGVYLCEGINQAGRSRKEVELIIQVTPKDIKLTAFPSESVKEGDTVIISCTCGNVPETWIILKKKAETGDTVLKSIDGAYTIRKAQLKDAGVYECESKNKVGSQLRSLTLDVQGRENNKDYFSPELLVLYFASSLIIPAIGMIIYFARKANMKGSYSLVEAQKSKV

T1 sequence (P19320 with tags, fused parts or gaps limits assumed): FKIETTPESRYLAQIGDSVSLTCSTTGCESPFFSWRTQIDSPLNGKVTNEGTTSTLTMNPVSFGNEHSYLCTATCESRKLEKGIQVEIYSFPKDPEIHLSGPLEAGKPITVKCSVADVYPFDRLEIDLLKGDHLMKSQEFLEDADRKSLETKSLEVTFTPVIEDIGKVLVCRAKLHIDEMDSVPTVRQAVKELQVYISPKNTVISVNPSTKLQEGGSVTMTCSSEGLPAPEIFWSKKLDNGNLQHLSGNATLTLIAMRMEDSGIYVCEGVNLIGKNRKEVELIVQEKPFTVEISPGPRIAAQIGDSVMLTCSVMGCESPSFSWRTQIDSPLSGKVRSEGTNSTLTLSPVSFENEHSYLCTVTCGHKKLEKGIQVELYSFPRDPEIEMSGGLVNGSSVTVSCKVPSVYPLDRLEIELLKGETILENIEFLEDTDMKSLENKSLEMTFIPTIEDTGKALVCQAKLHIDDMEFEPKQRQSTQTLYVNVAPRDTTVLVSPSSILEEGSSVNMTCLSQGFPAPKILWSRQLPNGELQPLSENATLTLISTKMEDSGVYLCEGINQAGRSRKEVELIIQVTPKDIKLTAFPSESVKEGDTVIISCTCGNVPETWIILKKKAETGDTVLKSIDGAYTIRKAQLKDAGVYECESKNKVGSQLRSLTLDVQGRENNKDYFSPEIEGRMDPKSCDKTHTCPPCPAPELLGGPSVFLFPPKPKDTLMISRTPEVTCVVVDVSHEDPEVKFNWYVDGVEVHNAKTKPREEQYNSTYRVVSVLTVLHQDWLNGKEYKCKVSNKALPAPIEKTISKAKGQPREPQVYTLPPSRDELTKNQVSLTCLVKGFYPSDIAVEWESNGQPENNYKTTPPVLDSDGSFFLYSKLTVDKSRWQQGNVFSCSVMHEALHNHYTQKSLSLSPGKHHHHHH
ICAM surface, sequence (P05362 28-532): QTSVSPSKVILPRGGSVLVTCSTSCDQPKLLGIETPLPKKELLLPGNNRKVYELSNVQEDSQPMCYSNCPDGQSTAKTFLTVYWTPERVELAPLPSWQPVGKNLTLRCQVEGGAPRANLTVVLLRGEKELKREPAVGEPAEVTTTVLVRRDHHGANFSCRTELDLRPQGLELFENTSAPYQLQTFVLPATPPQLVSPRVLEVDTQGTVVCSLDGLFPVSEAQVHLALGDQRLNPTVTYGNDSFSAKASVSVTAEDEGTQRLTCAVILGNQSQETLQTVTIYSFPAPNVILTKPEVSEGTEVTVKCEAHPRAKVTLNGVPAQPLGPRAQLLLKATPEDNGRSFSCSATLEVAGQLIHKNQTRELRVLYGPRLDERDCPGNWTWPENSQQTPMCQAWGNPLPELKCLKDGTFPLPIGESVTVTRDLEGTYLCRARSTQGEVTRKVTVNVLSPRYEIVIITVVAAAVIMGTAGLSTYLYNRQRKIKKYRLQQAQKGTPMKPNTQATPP

Compound `CCCCCCCCCCCCCCCC(=O)N[C@H](C(=O)N[C@H](C(=O)N[C@H](C(=O)N[C@@H](C)C(=O)N[C@@H](C)C(=O)N[C@@H](C)C(=O)N[C@@H](CCC(=O)O)C(=O)N[C@@H](CCC(=O)O)C(=O)N[C@@H](CCC(=O)O)C(=O)NCC(=O)N[C@@H](CO)C(=O)NCC(=O)N[C@H](C(=O)N[C@@H](Cc1c[nH]cn1)C(=O)N1CCC[C@H]1C(=O)N[C@@H](CCCCN)C(=O)N[C@@H](CCC(N)=O)C(=O)N[C@@H](Cc1c[nH]cn1)C(N)=O)C(C)C)C(C)C)C(C)C)C(C)C` [VCAMb PA, C16-V3A3E3GSGVHPKQH (SEQ ID NO: 14)] (HELM PEPTIDE1{[CCCCCCCCCCCCCCCC(=O)[*:2]].V.V.V.A.A.A.E.E.E.G.S.G.V.H.P.K.Q.H.[am]}$$$$V2.0) has a viability at 1 min, 125 µM ([1]; 125 μM PA) of 85.2 ± 5.3%, a viability at 1 min, 250 µM ([1]; 250 μM PA) of 82.6 ± 7.45% and a viability at 1 min, 500 µM ([1]; 500 μM PA) of 82.53 ± 0.61%. For the same compound, the “association with VCAM-1 protein in BLI” value [2] was “clear association”, the “non-specific interactions of coated lymphocytes with off-target protein” value (ICAM surface) was “minimal” and the coating efficiency ([3]; PA in the range of 125-500 μM) was ≥ 95%. The coating efficiency ([3]; coated within 1 minute at room temperature) was ≥ 94.5%, the “minimal concentration of stable coating” value ([3]; from coating efficiency and peak shifting) was 125 µM and the “difference in coating efficiency between VCAM-1 and ICAM-1 targeting PA” value [4] was “little difference”. It also gave a zeta potential [5] of 21.4±3.703 mV.
For `CCCCCCCCCCCCCCCC(=O)N[C@H](C(=O)N[C@H](C(=O)N[C@H](C(=O)N[C@@H](C)C(=O)N[C@@H](C)C(=O)N[C@@H](C)C(=O)N[C@@H](CCC(=O)O)C(=O)N[C@@H](CCC(=O)O)C(=O)N[C@@H](CCC(=O)O)C(N)=O)C(C)C)C(C)C)C(C)C` [backbone PA, C16-V3A3E3 (SEQ ID NO: 5)] (HELM PEPTIDE1{[CCCCCCCCCCCCCCCC(=O)[*:2]].V.V.V.A.A.A.E.E.E.[am]}$$$$V2.0), the “viability of coated cells” value [6] was “high viability”.
In the case of “C16-V3A3E3GSGQHPHVK (SEQ ID NO: 17) (VVVAAAEEEGSGQHPHVK; HELM PEPTIDE1{[CCCCCCCCCCCCCCCC(=O)[*:2]].V.V.V.A.A.A.E.E.E.G.S.G.Q.H.P.H.V.K.[am]}$$$$V2.0; SMILES CCCCCCCCCCCCCCCC(=O)N[C@H](C(=O)N[C@H](C(=O)N[C@H](C(=O)N[C@@H](C)C(=O)N[C@@H](C)C(=O)N[C@@H](C)C(=O)N[C@@H](CCC(=O)O)C(=O)N[C@@H](CCC(=O)O)C(=O)N[C@@H](CCC(=O)O)C(=O)NCC(=O)N[C@@H](CO)C(=O)NCC(=O)N[C@@H](CCC(N)=O)C(=O)N[C@@H](Cc1c[nH]cn1)C(=O)N1CCC[C@H]1C(=O)N[C@@H](Cc1c[nH]cn1)C(=O)N[C@H](C(=O)N[C@@H](CCCCN)C(N)=O)C(C)C)C(C)C)C(C)C)C(C)C) [VCAMb-scr PA]”, the “association with VCAM-1 protein in BLI” value [2] is reported as “negligible binding”, the “coating behavior on hTreg cells” value ([3]; physiological buffer) is reported as “the majority of the cells were not coated by the fibers” and the zeta potential [5] is reported as 6.313±0.8632 mV.
In the case of “C16-V4A2E3 (SEQ ID NO: 12) (VVVVAAEEE; HELM PEPTIDE1{[CCCCCCCCCCCCCCCC(=O)[*:2]].V.V.V.V.A.A.E.E.E.[am]}$$$$V2.0; SMILES CCCCCCCCCCCCCCCC(=O)N[C@H](C(=O)N[C@H](C(=O)N[C@H](C(=O)N[C@H](C(=O)N[C@@H](C)C(=O)N[C@@H](C)C(=O)N[C@@H](CCC(=O)O)C(=O)N[C@@H](CCC(=O)O)C(=O)N[C@@H](CCC(=O)O)C(N)=O)C(C)C)C(C)C)C(C)C)C(C)C) [backbone PA candidate with V4A2 β-sheet region]”, the “coverage of the cell surface by nanofibers” value (CCRF-CEM cells) is reported as “only could partially cover the cell surface”.
In the case of VHPKQHR [VHPKQHR (SEQ ID NO: 11)], the Kd (VCAM-1) is given as 39.6 ± 1.78 nM.
